Assay: xn = mol fraction of the nth substance listed
Conditions: for surface tension liquid-gas: Ring tensiometer; for mass density: 101.3 kPa, Liquid

COCCOCCOCCOCCOC [2,5,8,11,14-pentaoxapentadecane] + O
Conditions | mass density [kg/m3] | surface tension liquid-gas [mN/m]
298.15 K, x1 = 0.0016 | – | 50.16
298.15 K, x1 = 0.002 | – | 48.89
298.15 K, x1 = 0.0026 | – | 47.04
298.15 K, x1 = 0.0031 | – | 46.37
298.15 K, x1 = 0.0092 | – | 43.11
298.15 K, x1 = 0.0142 | 1011.13 | –
298.15 K, x1 = 0.0174 | – | 41.23
298.15 K, x1 = 0.0283 | – | 40.1
298.15 K, x1 = 0.057 | – | 39.54
298.15 K, x1 = 0.0746 | – | 38.88
298.15 K, x1 = 0.0747 | 1035.25 | –
298.15 K, x1 = 0.1026 | – | 38.65
298.15 K, x1 = 0.1452 | 1036.72 | –
298.15 K, x1 = 0.1497 | – | 37.66
298.15 K, x1 = 0.2264 | – | 36.29
298.15 K, x1 = 0.2309 | 1031.3 | –
298.15 K, x1 = 0.2862 | – | 35.79
298.15 K, x1 = 0.2974 | 1026.41 | –
298.15 K, x1 = 0.4065 | 1020.2 | –
298.15 K, x1 = 0.4268 | – | 35.09
298.15 K, x1 = 0.5085 | 1016.34 | –
298.15 K, x1 = 0.5414 | – | 34.92
298.15 K, x1 = 0.5863 | 1014.23 | –
298.15 K, x1 = 0.6144 | – | 34.46
298.15 K, x1 = 0.6788 | 1012.16 | –
298.15 K, x1 = 0.787 | – | 34.2
298.15 K, x1 = 0.8139 | 1009.47 | –
298.15 K, x1 = 0.8286 | – | 34.19
298.15 K, x1 = 0.854 | 1008.76 | –
298.15 K, x1 = 0.9196 | – | 33.91
298.15 K, x1 = 0.9569 | 1007.43 | –
298.15 K, x1 = 1 | 1007.26 | 33.74
308.15 K, x1 = 0.0014 | – | 51
308.15 K, x1 = 0.0023 | – | 46.99
308.15 K, x1 = 0.0032 | – | 45.45
308.15 K, x1 = 0.004 | – | 44.21
308.15 K, x1 = 0.009 | – | 42.87
308.15 K, x1 = 0.0142 | 1006.56 | –
308.15 K, x1 = 0.0175 | – | 39.9
308.15 K, x1 = 0.0275 | – | 39.08
308.15 K, x1 = 0.0539 | – | 38.34
308.15 K, x1 = 0.0715 | – | 37.36
308.15 K, x1 = 0.0747 | 1027.26 | –
308.15 K, x1 = 0.099 | – | 37.28
308.15 K, x1 = 0.1452 | 1027.67 | –
308.15 K, x1 = 0.1478 | – | 35.51
308.15 K, x1 = 0.2212 | – | 34.95
308.15 K, x1 = 0.2309 | 1022.01 | –
308.15 K, x1 = 0.2974 | 1017.12 | –
308.15 K, x1 = 0.3074 | – | 34.22
308.15 K, x1 = 0.4065 | 1010.92 | –
308.15 K, x1 = 0.4252 | – | 33.85
308.15 K, x1 = 0.5085 | 1007.06 | –
308.15 K, x1 = 0.5523 | – | 33.58
308.15 K, x1 = 0.5863 | 1004.92 | –
308.15 K, x1 = 0.6404 | – | 33.32
308.15 K, x1 = 0.6788 | 1002.83 | –
308.15 K, x1 = 0.7835 | – | 33.05
308.15 K, x1 = 0.8139 | 1000.17 | –
308.15 K, x1 = 0.814 | – | 32.88
308.15 K, x1 = 0.854 | 999.47 | –
308.15 K, x1 = 0.9479 | – | 32.64
308.15 K, x1 = 0.9569 | 998.16 | –
308.15 K, x1 = 1 | 997.98 | 32.45
318.15 K, x1 = 0.0013 | – | 58.46
318.15 K, x1 = 0.0019 | – | 54.2
318.15 K, x1 = 0.0024 | – | 51.29
318.15 K, x1 = 0.0033 | – | 47.59
318.15 K, x1 = 0.0098 | – | 42.27
318.15 K, x1 = 0.0142 | 1001.29 | –
318.15 K, x1 = 0.0187 | – | 40.41
318.15 K, x1 = 0.0314 | – | 40.39
318.15 K, x1 = 0.0584 | – | 38.25
318.15 K, x1 = 0.0747 | 1019.04 | –
318.15 K, x1 = 0.0748 | – | 37.24
318.15 K, x1 = 0.1022 | – | 36.5
318.15 K, x1 = 0.1452 | 1018.51 | –
318.15 K, x1 = 0.1482 | – | 35.37
318.15 K, x1 = 0.2219 | – | 33.81
318.15 K, x1 = 0.2309 | 1012.58 | –
318.15 K, x1 = 0.2974 | 1007.72 | –
318.15 K, x1 = 0.3152 | – | 33.3
318.15 K, x1 = 0.4065 | 1001.56 | –
318.15 K, x1 = 0.4328 | – | 32.94
318.15 K, x1 = 0.5085 | 997.73 | –
318.15 K, x1 = 0.5259 | – | 32.75
318.15 K, x1 = 0.5863 | 995.58 | –
318.15 K, x1 = 0.5974 | – | 32.47
318.15 K, x1 = 0.6788 | 993.48 | –
318.15 K, x1 = 0.7667 | – | 32.22
318.15 K, x1 = 0.8139 | 990.83 | –
318.15 K, x1 = 0.8249 | – | 32.05
318.15 K, x1 = 0.854 | 990.15 | –
318.15 K, x1 = 0.9324 | – | 31.94
318.15 K, x1 = 0.9569 | 988.89 | –
318.15 K, x1 = 1 | 988.72 | 31.71

COCCOCCOC [2,5,8-trioxanonane] + O
Conditions | mass density [kg/m3] | surface tension liquid-gas [mN/m]
298.15 K, x1 = 0.0047 | – | 49.27
298.15 K, x1 = 0.0141 | – | 44.11
298.15 K, x1 = 0.0188 | 1002.55 | –
298.15 K, x1 = 0.0279 | – | 42.26
298.15 K, x1 = 0.0456 | – | 39.85
298.15 K, x1 = 0.0543 | 1006.8 | –
298.15 K, x1 = 0.0874 | – | 35.99
298.15 K, x1 = 0.1184 | – | 31.62
298.15 K, x1 = 0.1289 | 1002.43 | –
298.15 K, x1 = 0.1582 | – | 30.69
298.15 K, x1 = 0.1903 | 994.76 | –
298.15 K, x1 = 0.2241 | – | 30.45
298.15 K, x1 = 0.3191 | – | 29.9
298.15 K, x1 = 0.3195 | 978.75 | –
298.15 K, x1 = 0.4068 | 970.55 | –
298.15 K, x1 = 0.4283 | – | 28.69
298.15 K, x1 = 0.4993 | 963.15 | –
298.15 K, x1 = 0.5164 | – | 28.08
298.15 K, x1 = 0.621 | 955.66 | –
298.15 K, x1 = 0.6493 | – | 27.9
298.15 K, x1 = 0.7181 | 950.74 | –
298.15 K, x1 = 0.7841 | – | 26.77
298.15 K, x1 = 0.8097 | 946.27 | –
298.15 K, x1 = 0.8737 | – | 26.29
298.15 K, x1 = 0.9099 | 942.33 | –
298.15 K, x1 = 0.9228 | – | 25.69
298.15 K, x1 = 0.9551 | 940.97 | –
298.15 K, x1 = 0.9704 | – | 25.19
298.15 K, x1 = 1 | 940.01 | 24.56
308.15 K, x1 = 0.0014 | – | 53.47
308.15 K, x1 = 0.0038 | – | 50.51
308.15 K, x1 = 0.0085 | – | 47.12
308.15 K, x1 = 0.0142 | – | 44.72
308.15 K, x1 = 0.0188 | 998.41 | –
308.15 K, x1 = 0.0279 | – | 41.3
308.15 K, x1 = 0.0457 | – | 38.99
308.15 K, x1 = 0.0543 | 1001.43 | –
308.15 K, x1 = 0.0875 | – | 33.65
308.15 K, x1 = 0.12 | – | 32.57
308.15 K, x1 = 0.1289 | 996.23 | –
308.15 K, x1 = 0.1602 | – | 31.09
308.15 K, x1 = 0.1903 | 987.3 | –
308.15 K, x1 = 0.2265 | – | 29.75
308.15 K, x1 = 0.3195 | 970.44 | –
308.15 K, x1 = 0.3217 | – | 29.19
308.15 K, x1 = 0.4068 | 961.72 | –
308.15 K, x1 = 0.4305 | – | 28.79
308.15 K, x1 = 0.4993 | 954.06 | –
308.15 K, x1 = 0.5179 | – | 28.41
308.15 K, x1 = 0.621 | 945.87 | –
308.15 K, x1 = 0.6498 | – | 28.3
308.15 K, x1 = 0.7181 | 940.7 | –
308.15 K, x1 = 0.7831 | – | 27.7
308.15 K, x1 = 0.8097 | 936.34 | –
308.15 K, x1 = 0.8744 | – | 27.58
308.15 K, x1 = 0.9099 | 932.39 | –
308.15 K, x1 = 0.9165 | – | 27.54
308.15 K, x1 = 0.9551 | 931.05 | –
308.15 K, x1 = 0.9645 | – | 27.43
308.15 K, x1 = 1 | 930.03 | 27.65
318.15 K, x1 = 0.0015 | – | 55.76
318.15 K, x1 = 0.0038 | – | 51.77
318.15 K, x1 = 0.0081 | – | 48.33
318.15 K, x1 = 0.0135 | – | 45.61
318.15 K, x1 = 0.0188 | 994.3 | –
318.15 K, x1 = 0.0269 | – | 41.95
318.15 K, x1 = 0.0444 | – | 39.33
318.15 K, x1 = 0.0543 | 996.25 | –
318.15 K, x1 = 0.0857 | – | 34.62
318.15 K, x1 = 0.1091 | – | 28.86
318.15 K, x1 = 0.1289 | 989.1 | –
318.15 K, x1 = 0.156 | – | 26.65
318.15 K, x1 = 0.1903 | 979.79 | –
318.15 K, x1 = 0.2194 | – | 25.34
318.15 K, x1 = 0.3174 | – | 24.45
318.15 K, x1 = 0.3195 | 961.72 | –
318.15 K, x1 = 0.4068 | 952.75 | –
318.15 K, x1 = 0.4248 | – | 24.26
318.15 K, x1 = 0.4993 | 944.64 | –
318.15 K, x1 = 0.511 | – | 24.18
318.15 K, x1 = 0.621 | 936.5 | –
318.15 K, x1 = 0.6513 | – | 23.87
318.15 K, x1 = 0.7181 | 931.28 | –
318.15 K, x1 = 0.7915 | – | 23.64
318.15 K, x1 = 0.8097 | 926.76 | –
318.15 K, x1 = 0.8844 | – | 23.5
318.15 K, x1 = 0.9099 | 922.58 | –
318.15 K, x1 = 0.9137 | – | 23.48
318.15 K, x1 = 0.9547 | – | 23.46
318.15 K, x1 = 0.9551 | 921.12 | –
318.15 K, x1 = 1 | 919.99 | 23.44

From the NIST ThermoML archive (doi:10.1021/je100757w)
